Data reported in the CATMoS acute toxicity set (Mansouri et al. 2021).

Assay: GHS categories as the set defines them, by LD50: 1 up to 5, 2 up to 50, 3 up to 300, 4 up to 2000, 5 above 2000 mg/kg
Settings: rat; in vivo; po
With `CC(C)(c1ccc(OCCO)cc1)c1ccc(OCCO)cc1` the GHS category was 5.
In the case of `NCCCN(CCO)CCO`, the GHS category is reported as 5.
In the case of `CC(=O)C(O)O`, the GHS category is reported as 5.
Work on `Cc1cccc2ncc(C(=O)Nc3ccc(Cl)cc3)c(=O)n12` yielded a GHS category of 3.
Work on `O=c1c2ccccc2c(=O)c2c1cc(Cl)c1[nH]c3c([nH]c12)c(Cl)cc1c(=O)c2ccccc2c(=O)c13` yielded a GHS category of 5.
With `CO/N=C(\C(=O)N[C@@H]1C(=O)N2C(C(=O)O)=CCS[C@H]12)c1csc(N)n1` the GHS category was 5.
In the case of `COc1ccccc1N=Nc1c(O)ccc2ccccc12`, the GHS category is reported as 5.
`COC(=O)C(F)(F)C(F)(F)C(F)(F)OC(F)=C(F)F` showed a GHS category of 3.
Compound `CCCOC(C)OCCC` has a GHS category of 5.
In the case of `CC(C(=O)C(N)=O)c1ccc(N2Cc3ccccc3C2=O)cc1` (stereo unspecified), the GHS category is reported as 5.
Work on `Cc1nc(N2CCOCC2)sc1C(=O)Nc1ccccc1` yielded a GHS category of 4.
Work on `CCCCCCCSCCCCN1CCCCCC1=O` yielded a GHS category of 5.
For `CC(CC(C)(C)C)CC(C)(C)C`, the GHS category was 5.
Compound `NC(=O)Oc1ccccc1C(=O)Oc1ccccc1Cl` has a GHS category of 5.
`Nc1cnn(CCO)c1N` gave a GHS category of 5.
With `CN(C)CCn1nnnc1SCC1=C(C(=O)O)N2C(=O)[C@@H](NC(=O)Cc3csc(N)n3)[C@H]2SC1` the GHS category was 5.
For `CCCCCCCCCCCCCCCCCC(=O)OCCOC(=O)CCCCCCCCCCCCCCCCC`, the GHS category was 5.
For `NC(=O)N=NC(N)=O`, the GHS category was 5.
With `CC(C)=CCC(C#N)(CCN1CCOCC1)c1cccc2ccccc12` (stereo unspecified) the GHS category was 4.
With `CC(CCO)CC(C)(C)C` (stereo unspecified) the GHS category was 5.
In the case of `CCOC(=O)C(=O)Nc1cc(SCCOC)nc(C)n1`, the GHS category is reported as 4.
`O=C(COCCOCCOCC(=O)Nc1c(I)cc(I)c(C(=O)O)c1I)Nc1c(I)cc(I)c(C(=O)O)c1I` gave a GHS category of 5.
`CSCC[C@H](NC(=O)CCSC(=O)c1ccccc1)C(=O)OC(C)C` showed a GHS category of 5.
Work on `CNC(=O)c1sc(-c2ccc(OC)cc2)nc1C` yielded a GHS category of 5.
`COC(=O)NC(=S)Nc1ccc(OCc2ccccc2)cc1[N+](=O)[O-]` showed a GHS category of 5.
With `C[C@@H]1CC[C@@]2(OC1)O[C@H]1[C@@H](O)[C@H]3[C@@H]4CC[C@H]5C[C@@H](O[C@@H]6O[C@H](CO)[C@H](O[C@@H]7O[C@H](CO)[C@@H](O)[C@H](O[C@@H]8OC[C@@H](O)[C@H](O)[C@H]8O)[C@H]7O[C@@H]7O[C@H](CO)[C@@H](O)[C@H](O[C@@H]8O[C@H](CO)[C@@H](O)[C@H](O)[C@H]8O)[C@H]7O)[C@H](O)[C@H]6O)[C@H](O)C[C@]5(C)[C@H]4CC[C@]3(C)[C@H]1[C@@H]2C` the GHS category was 3.
Compound `CC(C)c1ccccc1OP(=O)(Oc1ccccc1C(C)C)Oc1ccccc1C(C)C` has a GHS category of 5.
In the case of `CN1CC(c2ccn[nH]2)CC2c3cccc4[nH]cc(c34)CC21` (stereo unspecified), the GHS category is reported as 4.
`Oc1cn2c(n1)Nc1ccc(Cl)c(Cl)c1C2` gave a GHS category of 4.
Work on `Cn1c(=O)oc2cc(C(=O)c3cccs3)ccc21` yielded a GHS category of 5.
`O=C(O)COc1nn(-c2cccc(C(F)(F)F)c2)c2ncccc12` gave a GHS category of 4.
Compound `CN1CC(c2ccnn2-c2ccccc2)CC2c3cccc4[nH]cc(c34)CC21` (stereo unspecified) has a GHS category of 4.
Work on `CCOCC(C)OC(C)=O` (stereo unspecified) yielded a GHS category of 5.
With `C=C(C)C(=O)OCCc1ccccc1` the GHS category was 5.
For `CCOC(=O)C(=O)Nc1cc(OC)nc(C)n1`, the GHS category was 4.
Compound `CCOC(=O)C1=C(C)NC(C[P+](c2ccccc2)(c2ccccc2)c2ccccc2)=C(C(=O)OCC)C1c1cccc([N+](=O)[O-])c1` (stereo unspecified) has a GHS category of 4.
Compound `CCN(C)c1cc(=O)c2c(ccc3ccccc32)o1` has a GHS category of 4.
For `CCOC(=O)[C@H](CCc1ccccc1)N[C@@H](C)C(=O)N1[C@H](C(=O)O)C[C@H]2CCCC[C@@H]21`, the GHS category was 5.
`CC(C)C[C@H](NC(=O)[C@@H](Cc1ccc2ccccc2c1)NC(=O)[C@H](Cc1ccc(O)cc1)NC(=O)[C@H](CO)NC(=O)[C@H](Cc1c[nH]c2ccccc12)NC(=O)[C@H](Cc1cnc[nH]1)NC(=O)[C@@H]1CCC(=O)N1)C(=O)N[C@@H](CCCN=C(N)N)C(=O)N1CCC[C@H]1C(=O)NCC(N)=O` gave a GHS category of 3.
`CCCc1c(Cc2ccc(-c3ccccc3-c3nn[nH]n3)cc2)c(NCCN2CCOCC2)nc2ncnn12` showed a GHS category of 4.
Compound `COC(F)(F)C(C(F)(F)F)C(F)(F)F` has a GHS category of 3.
Work on `CCCCCCCCCCC[C@@H]1C[C@H](O)[C@H](CCCCCC)C(=O)O1` yielded a GHS category of 5.
For `O=P(OCC(CBr)(CBr)CBr)(OCC(CBr)(CBr)CBr)OCC(CBr)(CBr)CBr`, the GHS category was 5.
`FC(F)(F)OC(Cl)C(F)(Cl)Cl` (stereo unspecified) showed a GHS category of 5.
With `O=S(=O)(O)c1ccc(Nc2nc(Nc3ccc(C=Cc4ccc(Nc5nc(Nc6ccc(S(=O)(=O)O)cc6)nc(N6CCOCC6)n5)cc4S(=O)(=O)O)c(S(=O)(=O)O)c3)nc(N3CCOCC3)n2)cc1` the GHS category was 5.
`CCCCCCCOCC(C)CC=O` (stereo unspecified) gave a GHS category of 5.
For `Cc1cc2cccnc2n(-c2cccc(C(F)(F)F)c2)c1=O`, the GHS category was 3.
Compound `O=[N+]([O-])c1ccc(OCC2CO2)cc1` (stereo unspecified) has a GHS category of 5.
In the case of `COc1ccc(-c2ccc(C#N)cc2)cc1`, the GHS category is reported as 5.
In the case of `O=C(CCn1cnc2c(=O)nc[nH]c21)Nc1ccc(C(=O)O)cc1`, the GHS category is reported as 5.
Work on `CC1(c2ccc(Oc3ccccc3)cc2)OC(=O)N(Nc2ccccc2)C1=O` (stereo unspecified) yielded a GHS category of 5.
In the case of `COc1cc(OC)c2oc(C3(Cn4cncn4)OCCO3)cc2c1`, the GHS category is reported as 4.
`CNC(=O)Oc1c(C(C)(C)C)cc(C)cc1C(C)(C)C` showed a GHS category of 5.
Compound `O=C1CC(N2C(=O)c3ccccc3C2=O)CC(=O)N1CN1CCOCC1` has a GHS category of 5.
`COP(=O)(OC)Oc1ccc(Cl)cc1Cl` showed a GHS category of 3.
`CC(=O)C(N=Nc1cccc(OCCOc2ccccc2N=NC(C(C)=O)C(=O)Nc2ccc3[nH]c(=O)[nH]c3c2)c1)C(=O)Nc1ccc2[nH]c(=O)[nH]c2c1` (stereo unspecified) showed a GHS category of 5.
